In US8455475B2 (Gruenenthal GmbH, priority 2009, dated 2013):

Columns and labels:
[1] = biological target: T1, rat B1R (bradykinin receptor 1) (Rattus norvegicus, UniProt P97583); assay: FLIPR Ca2+ assay (Fluo-4) on CHO K1 cells stably transfected with the B1R gene of the rat (rB1R cells): % inhibition at 10 μM / IC50, agonist Des-Arg9-bradykinin; type: cell-based; conditions: CHO-K1, rat B1R
T1 construct: expressed in transfected cells; host or cells: CHO K1 cells
T1 sequence (P97583 1-337): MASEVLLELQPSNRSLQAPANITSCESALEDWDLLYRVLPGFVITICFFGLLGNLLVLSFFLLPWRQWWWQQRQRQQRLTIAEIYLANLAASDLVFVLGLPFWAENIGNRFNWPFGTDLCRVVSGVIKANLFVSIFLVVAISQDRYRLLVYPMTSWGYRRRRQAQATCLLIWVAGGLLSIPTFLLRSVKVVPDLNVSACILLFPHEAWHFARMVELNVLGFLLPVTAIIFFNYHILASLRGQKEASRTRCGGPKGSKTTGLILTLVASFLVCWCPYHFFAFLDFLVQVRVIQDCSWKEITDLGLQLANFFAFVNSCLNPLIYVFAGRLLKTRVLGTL
In short: (§1)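 Using a two-addition FLIPR protocol, compound (10 μM for % values; concentration series for IC50) was preincubated 10–20 min with Fluo-4-loaded B1R-expressing CHO K1 cells before EC80 agonist challenge. Suppression of Ca2+ inflow, read as peak fluorescence, is expressed relative to maximum achievable inhibition; duplicate/triplicate, ≥2 independent experiments.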

[2] = biological target: T2, human B1R (bradykinin receptor 1) (Homo sapiens, UniProt P46663); assay: FLIPR Ca2+ assay (Fluo-4) on CHO K1 cells stably transfected with the human B1R gene (hB1R cells): % inhibition at 10 μM / IC50, agonist Lys-Des-Arg9-bradykinin; type: cell-based; conditions: CHO-K1, human B1R
T2 construct: expressed in transfected cells; host or cells: CHO K1 cells
T2 sequence (P46663 1-353): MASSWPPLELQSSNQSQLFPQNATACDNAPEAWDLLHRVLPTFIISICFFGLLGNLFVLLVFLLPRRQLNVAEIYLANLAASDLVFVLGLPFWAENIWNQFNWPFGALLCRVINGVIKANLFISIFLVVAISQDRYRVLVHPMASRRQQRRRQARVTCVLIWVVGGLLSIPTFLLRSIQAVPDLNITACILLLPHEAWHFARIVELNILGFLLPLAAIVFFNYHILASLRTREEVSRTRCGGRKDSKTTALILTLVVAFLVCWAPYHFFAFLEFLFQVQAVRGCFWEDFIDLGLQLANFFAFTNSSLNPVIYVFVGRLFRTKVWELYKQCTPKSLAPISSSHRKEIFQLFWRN
In short: as §1

Structure (SMILES)	inhibition at 10 µM [1] [%]	inhibition at 10 µM [2] [%]
O=C(c1cccc2c1CC[C@H]2NS(=O)(=O)c1ccccc1Cl)N1CCC2(CC1)CCN(c1ccncc1)CC2 [Example H-167, 2-Chloro-N-[(1R)-4-(9-pyridin-4-yl-3,9-diazaspiro[5.5]undecane-3-carbonyl)-2,3-dihydro-1H-inden-1-yl]-benzenesulfonic acid amide]	81	35
O=C(c1cccc2c1CC[C@@H]2N1Cc2cccc(Cl)c2C1=O)N1CCC2(CCN(c3ccncc3)CC2)C1 [Example H-168, 7-Chloro-2-[(1S)-4-(8-pyridin-4-yl-3,8-diazaspiro[4.5]decane-3-carbonyl)-2,3-dihydro-1H-inden-1-yl]-2,3-dihydro-isoindol-1-one]	55	96
O=C(c1cccc2c1CC[C@H]2N1Cc2cccc(Cl)c2C1=O)N1CCC2(CCN(c3ccncc3)CC2)C1 [Example H-169, 7-Chloro-2-[(1R)-4-(8-pyridin-4-yl-3,8-diazaspiro[4.5]decane-3-carbonyl)-2,3-dihydro-1H-inden-1-yl]-2,3-dihydro-isoindol-1-one]	12	54
O=C(c1cccc2c1CC[C@H]2N1Cc2cccc(Cl)c2C1=O)N1CCC2(CC1)CCN(c1ccncc1)CC2 [Example H-170, 7-Chloro-2-[(1R)-4-(9-pyridin-4-yl-3,9-diazaspiro[5.5]undecane-3-carbonyl)-2,3-dihydro-1H-inden-1-yl]-2,3-dihydro-isoindol-1-one]	47	56
O=C(N[C@@H]1CCc2cc(C(=O)N3CCC4(CCN(c5ccncc5)CC4)C3)ccc21)c1ccccc1Cl [Example H-171]	104	100
O=C(N[C@@H]1CCc2cc(C(=O)N3CCC4(CC3)CCN(c3ccncc3)CC4)ccc21)c1ccccc1Cl [Example H-172, 2-chloro-N-[(1R)-5-(9-pyridin-4-yl-3,9-diazaspiro[5.5]undecane-3-carbonyl)-2,3-dihydro-1H-inden-1-yl]-benzamide]	105	99
O=C(c1ccc2c(c1)CC[C@H]2NS(=O)(=O)c1ccccc1Cl)N1CCC2(CCN(c3ccncc3)CC2)C1 [Example H-173, 2-Chloro-N-[(1R)-5-(8-pyridin-4-yl-3,8-diazaspiro[4.5]decane-3-carbonyl)-2,3-dihydro-1H-inden-1-yl]-benzenesulfonic acid amide]	89	100
CN(C(=O)c1cc(Cl)ccc1Cl)C1CCc2ccc(C(=O)N3CCC4(CC3)CCN(c3ccncc3)CC4)cc21 (stereo not drawn) [IND_CC-200, 2,5-Dichloro-N-methyl-N-[6-(9-pyridin-4-yl-3,9-diazaspiro[5.5]undecane-3-carbonyl)-2,3-dihydro-1H-inden-1-yl]-benzamide]	102	100
CN(C(=O)c1cc(C(F)(F)F)ccc1Cl)C1CCc2ccc(C(=O)N3CCC4(CC3)CCN(c3ccncc3)CC4)cc21 (stereo not drawn) [IND_CC-202, 2-Chloro-N-methyl-N-[6-(9-pyridin-4-yl-3,9-diazaspiro[5.5]undecane-3-carbonyl)-2,3-dihydro-1H-inden-1-yl]-5-(trifluoromethyl)-benzamide]	103	86
CN(C(=O)c1cc(F)ccc1Cl)C1CCc2ccc(C(=O)N3CCC4(CC3)CCN(c3ccncc3)CC4)cc21 (stereo not drawn) [IND_CC-203, 2-Chloro-5-fluoro-N-methyl-N-[6-(9-pyridin-4-yl-3,9-diazaspiro[5.5]undecane-3-carbonyl)-2,3-dihydro-1H-inden-1-yl]-benzamide]	103	99
O=C(NC1CCc2ccc(C(=O)N3CCC4(CC3)CCN(c3ccncc3)CC4)cc21)c1c(Cl)cccc1C(F)(F)F (stereo not drawn) [IND_CC-204, 2-Chloro-N-[6-(9-pyridin-4-yl-3,9-diazaspiro[5.5]undecane-3-carbonyl)-2,3-dihydro-1H-inden-1-yl]-6-(trifluoromethyl)-benzamide]	102	99
CC1(C)Cc2ccc(C(=O)N3CCC4(CC3)CCN(c3ccncc3)CC4)cc2C1NC(=O)c1c(Cl)cccc1C(F)(F)F (stereo not drawn) [IND_CC-206, 2-Chloro-N-[2,2-dimethyl-6-(9-pyridin-4-yl-3,9-diazaspiro[5.5]undecane-3-carbonyl)-1,3-dihydro-inden-1-yl]-6-(trifluoromethyl)-benzamide]	103	100
O=C(NC1CCc2ccc(C(=O)N3CCC4(CC3)CCN(c3ccncc3)CC4)cc21)c1cc(Cl)ccc1Cl (stereo not drawn) [IND_CC-207, 2,5-Dichloro-N-[6-(9-pyridin-4-yl-3,9-diazaspiro[5.5]undecane-3-carbonyl)-2,3-dihydro-1H-inden-1-yl]-benzamide]	101	98
O=C(NC1CCc2ccc(C(=O)N3CCC4(CC3)CCN(c3ccncc3)C4)cc21)c1cc(Cl)ccc1Cl (stereo not drawn) [IND_CC-208, 2,5-Dichloro-N-[6-(2-pyridin-4-yl-2,8-diazaspiro[4.5]decane-8-carbonyl)-2,3-dihydro-1H-inden-1-yl]-benzamide]	100	99
O=C(NC1CCc2ccc(C(=O)N3CCC4(CC3)CCN(c3ccc(C(F)(F)F)cc3)CC4)cc21)c1cc(Cl)ccc1Cl (stereo not drawn) [IND_CC-209, 2,5-Dichloro-N-[6-[9-[4-(trifluoromethyl)-phenyl]-3,9-diazaspiro[5.5]undecane-3-carbonyl]-2,3-dihydro-1H-inden-1-yl]-benzamide]	102	20
CC1(C)Cc2ccc(C(=O)N3CCC4(CC3)CCN(c3ccncc3)CC4)cc2C1NC(=O)c1cc(Cl)ccc1Cl (stereo not drawn) [IND_CC-210, 2,5-Dichloro-N-[2,2-dimethyl-6-(9-pyridin-4-yl-3,9-diazaspiro[5.5]undecane-3-carbonyl)-1,3-dihydro-inden-1-yl]-benzamide]	104	97
COc1ccc(C(=O)NC2CCc3ccc(C(=O)N4CCC5(CC4)CCN(c4ccncc4)C5)cc32)c(Cl)c1 (stereo not drawn) [IND_CC-212, 2-Chloro-4-methoxy-N-[6-(2-pyridin-4-yl-2,8-diazaspiro[4.5]decane-8-carbonyl)-2,3-dihydro-1H-inden-1-yl]-benzamide]	102	58
Cc1ccc(F)c(C(=O)NC2CCc3ccc(C(=O)N4CCC5(CC4)CCN(c4ccncc4)CC5)cc32)c1Cl (stereo not drawn) [IND_CC-214, 2-Chloro-6-fluoro-3-methyl-N-[6-(9-pyridin-4-yl-3,9-diazaspiro[5.5]undecane-3-carbonyl)-2,3-dihydro-1H-inden-1-yl]-benzamide]	102	83
Cc1ccc(F)c(C(=O)NC2CCc3ccc(C(=O)N4CCC5(CC4)CCN(c4ccncc4)C5)cc32)c1Cl (stereo not drawn) [IND_CC-215, 2-Chloro-6-fluoro-3-methyl-N-[6-(2-pyridin-4-yl-2,8-diazaspiro[4.5]decane-8-carbonyl)-2,3-dihydro-1H-inden-1-yl]-benzamide]	103	48
Cc1ccc(F)c(C(=O)NC2c3cc(C(=O)N4CCC5(CC4)CCN(c4ccncc4)CC5)ccc3CC2(C)C)c1Cl (stereo not drawn) [IND_CC-216, 2-Chloro-N-[2,2-dimethyl-6-(9-pyridin-4-yl-3,9-diazaspiro[5.5]undecane-3-carbonyl)-1,3-dihydro-inden-1-yl]-6-fluoro-3-methyl-benzamide]	103	58
O=C(NC1CCc2ccc(C(=O)N3CCC4(CC3)CCN(c3ccncc3)CC4)cc21)c1cc(C(F)(F)F)ccc1Cl (stereo not drawn) [IND_CC-217, 2-Chloro-N-[6-(9-pyridin-4-yl-3,9-diazaspiro[5.5]undecane-3-carbonyl)-2,3-dihydro-1H-inden-1-yl]-5-(trifluoromethyl)-benzamide]	95	99
O=C(NC1CCc2ccc(C(=O)N3CCC4(CC3)CCN(c3ccncc3)C4)cc21)c1cc(C(F)(F)F)ccc1Cl (stereo not drawn) [IND_CC-218, 2-Chloro-N-[6-(2-pyridin-4-yl-2,8-diazaspiro[4.5]decane-8-carbonyl)-2,3-dihydro-1H-inden-1-yl]-5-(trifluoromethyl)-benzamide]	103	94
CC1(C)Cc2ccc(C(=O)N3CCC4(CC3)CCN(c3ccncc3)CC4)cc2C1NC(=O)c1cc(C(F)(F)F)ccc1Cl (stereo not drawn) [IND_CC-219, 2-Chloro-N-[2,2-dimethyl-6-(9-pyridin-4-yl-3,9-diazaspiro[5.5]undecane-3-carbonyl)-1,3-dihydro-inden-1-yl]-5-(trifluoromethyl)-benzamide]	104	53
O=C(NC1CCc2ccc(C(=O)N3CCC4(CC3)CCN(c3ccncc3)CC4)cc21)c1cc(F)ccc1Cl (stereo not drawn) [IND_CC-220, 2-Chloro-5-fluoro-N-[6-(9-pyridin-4-yl-3,9-diazaspiro[5.5]undecane-3-carbonyl)-2,3-dihydro-1H-inden-1-yl]-benzamide]	104	100
